# Experimental data reported in patent US11541045B2, “Methods of treating cancer with farnesyltransferase inhibitors” (Kura Oncology, Inc., priority 2017, dated 2023).
# “And” between values parts separate entries of the source, which are not always exact repeats. Identical values can stand only once. “Also recorded” adds a separate entry of the source.
# Experiments:
# Assay type in all cases: in vivo, human
# [1] = test system: relapsed and refractory AML; assay: INT-17 trial, Phase 2, tipifarnib, analysed by CXCR4 expression; settings: relapsed or refractory AML patients, highest quintile of CXCR4 expression
# Method: (§1) Previous clinical studies with tipifarnib were performed in newly diagnosed AML in elderly patients with poor risk AML (CTEP-20, Phase 2) or relapsed and refractory AML (INT-17, Phase 2). In these studies, patient selection was not based on genetic markers. Anecdotal evidence of tipifarnib single agent activity was reported.
# [2] = test system: newly diagnosed AML in elderly patients with poor risk AML; assay: CTEP-20 trial, Phase 2, tipifarnib, analysed by CXCL12 expression
# Method: as §1
# [3] = test system: peripheral T-cell lymphoma (PTCL); assay: Phase II clinical study of tipifarnib in relapsed or refractory PTCL patients; design: key to Response: PR: partial response; SD: stable disease; PD: progressive disease
# From the text: A Phase II clinical study of tipifarnib can be conducted with the primary objective being to assess the antitumor activity of tipifarnib, in terms of Objective Response Rate (ORR) in subjects with relapsed or refractory advanced peripheral T-cell lymphoma (PTCL). Determination of objective tumor response can be performed by the International Workshop Criteria (IWC) and/or measurable cutaneous disease according to the modified Severity Weighted Assessment Tool (mSWAT). Secondary objectives can include accessing the effect of tipifarnib on rate of progression-free survival (PFS) at 1 year, duration of response (DOR), overall survival (OS); and safety and tolerability of tipifarnib.
# This Phase II study investigates the antitumor activity in terms of ORR of tipifarnib in subjects with PTCL. Up to 18 eligible subjects with advanced PTCL are enrolled. The total number of patients can be extended to 30.
# Subjects receive tipifarnib administered at a starting dose of 900 mg, orally with food, twice a day (bid) for 7 days in alternating weeks (Days 1-7 and 15-21) in 28 day cycles. At the discretion of the investigator, the dose of tipifarnib can be increased to 1200 mg bid if the subject has not experienced dose limiting toxicities at the 900 mg dose level. Subjects who develop serious adverse events (SAE) or ≥grade 2 treatment-emergent adverse events (TEAE) that are deemed related to tipifarnib and lasting ≥14 days will not undergo dose escalation. Stepwise 300 mg dose reductions to control treatment-related, treatment-emergent toxicities are also allowed.
# In the absence of unmanageable toxicities, subjects can continue to receive tipifarnib treatment until disease progression. If a complete response is observed, therapy with tipifarnib can be maintained for at least 6 months beyond the start of response.
# Tumor assessments are performed at screening and at least once every approximately 8 weeks for 6 months (cycles 2, 4, 6) and once every approximately 12 weeks (cycles 9, 12, 15, etc.) thereafter, until disease progression, starting at the end of Cycle 2. Additional tumor assessments can be conducted if deemed necessary by the Investigator. Subjects who discontinue tipifarnib treatment for reasons other than disease progression must continue tumor assessments until disease progression, withdrawal of subject's consent to study
# The study was an eighteen patient Phase II study with a Simon two-stage design (11+7). Two responses were required after the first eleven evaluable patients in order to proceed to second stage. Enrollment is to be extended to thirty patients if five responses are seen in the first stage.
# The dose of 900 mg b.i.d. for seven days in alternate week dosing was amended during the first stage to 600 mg b.i.d. for seven days in alternate week dosing.
# Formalin-fixed, paraffin-embedded (FFPE) samples were obtained from all subjects for the analysis of gene expression using RNA Seq and of single nucleotide variation (SNV, including SNPs and mutations) using next generation sequencing (NGS). Thirteen samples passed quality control (QC) for expression analysis. Sixteen samples passed quality control for SNV analysis.
# This example describes a Phase 2 study (ClinicalTrials.gov Identifier: NCT02464228) designed to investigate the antitumor activity of tipifarnib in 18 patients with relapsed or refractory PTCL, and certain results of the study.
# Primary outcome measures: Objective Response Rate (ORR) by the International Workshop Criteria (IWC) and/or measurable cutaneous disease according to the modified Severity Weighted Assessment Tool (mSWAT). Secondary outcome measures include the effect of tipifarnib on rate of progression-free survival (PFS) at 1 year, duration of response (DOR); and safety and tolerability of tipifarnib.
# Study Design: oral tipifarnib 300 mg twice daily (bid) on days 1-21 of 28-day treatment cycles. A Simon two-stage design for ORR. […]
# [4] = Grade ≥3 drug-related TEAEs, % of pts
smiles,measurement,setting,value
Cn1cncc1[C@@](N)(c1ccc(Cl)cc1)c1ccc2c(c1)c(-c1cccc(Cl)c1)cc(=O)n2C [tipifarnib],median survival,[1],182 days
same,mPFS,[2]; second CXCL12 expression tertile,89 days
same,mPFS,[2]; third tertile (lowest level of CXCL12 expression),33 days
same,median progression free survival (mPFS),"[2]; treatment naïve elderly, frail AML patients, highest CXCL12 expression tertile",431 days
same,Median overall PFS,"[3]; 5th line, all subjects with NGS data, reference and variant CXCL12 3′ UTR",53 days
same,HR (PFS),"[3]; CXCL12/CXCR4 ratio >0.200 versus ≤0.200, P=0.004",0.22
same,anemia,[3]; [4],32%
same,febrile neutropenia,[3]; [4],32%
same,leukopenia,[3]; [4],47%
same,lymphopenia,[3]; [4],16%
same,neutropenia,[3]; [4],74%
same,thrombocytopenia,[3]; [4],58%
same,Safety and Tolerability,"[3]; PTCL patients, overall statement",consistent with known safety profile; also recorded: generally well-tolerated
same,Response,"[3]; Table 1, one line per subject 1-18, PTCL patients, 900 mg b.i.d. amended to 600 mg b.i.d., seven days in alternate weeks",PR (3×) and PD (11×) and SD (4×)
same,Response,"[3]; Table 2, RNA Seq Experiment#1, one cell per patient (2002, 2004, 3002, 4001, 2001, 4004)",PD (3×) and SD (2×) and PR
same,Response,"[3]; Table 3, RNA Seq Experiment#2, one cell per patient (2005, 2006, 4005, 4006, 4007, 6003, 2007)",PD (5×) and SD and PR
same,median duration of durable responses,[3]; cohort of PTCL patients of Example II,11 months
same,median time to progression,"[3]; five patients with tumor size reductions, associated with elevated CXCL12 expression (p<0.001)",> 6 mo
same,HR (PFS),"[3]; high versus low CXCL12 expression, FIG. 13A, p=0.0015",0.22
same,Discontinuation for Progressive Disease,[3]; of 17 discontinuations,16 n
same,mPFS,"[3]; patients with CXCL12 3′ UTR SNV rs2839695, N=7, first time point (FIG. 4)",48 days
same,median progression free survival (mPFS),[3]; patients with CXCL12/CXCR4 ratio >0.200 (N=5),189 days
same,median progression free survival (mPFS),[3]; patients with CXCL12/CXCR4 ratio ≤0.200 (N=7),51 days
same,mPFS,"[3]; patients with CXCL12 reference 3′ UTR (8 patients), FIG. 12A",133 days
same,mPFS,"[3]; patients with CXCL12 rs2839695, N=7, later timepoint (FIG. 6)",50 days
same,mPFS,"[3]; patients with CXCL12 variant 3′ UTR (8 with rs2839695 and 1 novel variant), FIG. 12B",34 days
same,mPFS,"[3]; patients with no SNV in the 3′ UTR of CXCL12 (reference 3′ UTR), N=8, first time point (FIG. 4)",189 days
same,mPFS,"[3]; patients with no SNV in the 3′ UTR of CXCL12, N=8, later timepoint (FIG. 6)",134 days
same,mPFS,"[3]; subjects with high CXCL12 expression, FIG. 13A",190 days
same,activity in KIR3DL2-expressing PTCL,"[3]; subjects with high KIR3DL2 expression (e.g., over 1000)",no activity
same,mPFS,"[3]; subjects with low CXCL12 expression, FIG. 13A",49 days
